Data published in US20250129103A1, “METHODS FOR TREATMENT OF CANCER” (Frontier Medicines Corporation, priority 2022, published 2025).

Biological target: KRAS G12C (GMPPNP-loaded) and cRAF (Ras-binding domain) interaction (Homo sapiens (Human), UniProt P01116, C118S/C51S/C80L/G12C)
Test: Inhibition of KRAS G12C and cRAF binding (AlphaScreen)
Details: KRAS G12C loaded with GMPPNP, cRaf RBD, 2 hours preincubation; read-out: Raf-1 RBD K-Ras IC50
Description: Compounds were diluted in 100% DMSO and each compound concentration was spotted at 200 nl/well onto low volume, white 384 well plates. […] KRAS G12C was preloaded with the GTP analogue Guanosine 5′-[β,γ-imido]triphosphate (GMPPNP). The KRAS G12C was diluted in 25 mM Hepes, pH 7.4, 150 mM NaCl, 5 mM MgCl2, 0.01% TritonX-100 and 10 μM GMPPNP and added at 10 ul/well to compound-spotted plates resulting in a DMSO concentration of 2%. Plates were incubated for 2 hours. A mixture of RBD and the AlphaScreen streptavidin donor and glutathione acceptor beads diluted in 25 mM Hepes, pH 7.4, 150 mM NaCl, 5 mM MgCl2, 0.01% TritonX-100 and 2% DMSO was then added at 10 ul/well and incubated for 60-90 minutes before the samples were read for emission at 570 nm after excitation of the donor beads at 680 nm. All incubations were performed at room temperature. The final top compound concentration was 50 μM with 1:3 titrations for 10-point dose response curves. […] IC50S were determined using nonlinear regression fit of [inhibitor] vs. response (4 parameters). […]

Sequence of KRAS G12C (GMPPNP-loaded) and cRAF (Ras-binding domain) interaction (P01116 other isoform, or with tags, fused parts or gaps G12C/C51S/C80L/C118S): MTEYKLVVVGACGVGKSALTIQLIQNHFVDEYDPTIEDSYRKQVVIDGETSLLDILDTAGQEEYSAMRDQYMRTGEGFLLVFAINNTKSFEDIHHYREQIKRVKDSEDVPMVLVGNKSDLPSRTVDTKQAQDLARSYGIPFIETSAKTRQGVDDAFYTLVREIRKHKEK

Row | SMILES | IC50
1 | CC(C)c1noc(/C=C/C(=O)N2CCN(c3nc(OCC45CCCN4CCC5)nc4c(F)c(-c5cccc6ccc(F)c(Cl)c56)ncc34)C[C@@H]2CC#N)n1 [Compound 129] | 100 to 500 nM
2 | N#CC[C@H]1CN(c2nc(OC[C@@]34CCCN3C[C@H](F)C4)nc3c(F)c(-c4cccc5ccc(F)c(F)c45)ncc23)CCN1C(=O)/C=C/CN1CCn2ccnc2C1 [Compound 264] | 100 to 500 nM
3 | CO[C@@H]1CCN(C/C=C/C(=O)N2CCN(c3nc(OC[C@@]45CCCN4C[C@H](F)C5)nc4c(F)c(-c5cccc6cccc(F)c56)ncc34)C[C@@H]2CC#N)C1 [Compound 221] | < 10 nM
4 | N#CC[C@H]1CN(c2nc(OC[C@@]34CCCN3C[C@H](F)C4)nc3c(F)c(-c4cccc5cccc(F)c45)ncc23)CCN1C(=O)/C=C/CN1C2COCC1C2 [Compound 248] | 10 to 100 nM
5 | N#CC[C@H]1CN(c2nc(OC[C@@]34CCCN3C[C@H](F)C4)nc3c(F)c(-c4cccc5ccc(F)c(F)c45)ncc23)CCN1C(=O)/C=C/CN1CCn2ncnc2C1 [Compound 266] | 100 to 500 nM
6 | N#CC[C@H]1CN(c2nc(OC[C@@]34CCCN3C[C@H](F)C4)nc3c(F)c(-c4cccc5ccc(F)c(Cl)c45)ncc23)CCN1C(=O)/C=C/CN1CCSCC1 [Compound 231] | < 10 nM
7 | N#CC[C@H]1CN(c2nc(OC[C@@]34CCCN3C[C@H](F)C4)nc3c(F)c(-c4cccc(Cl)c4C(F)(F)F)ncc23)CCN1C(=O)/C=C/CN1CCOCC1 [Compound 296] | < 10 nM
8 | Cc1nccc(/C=C/C(=O)N2CCN(c3nc(OC[C@@]45CCCN4C[C@H](F)C5)nc4c(F)c(-c5cccc6c(C)c(F)ccc56)ncc34)C[C@@H]2CC#N)n1 [Compound 260] | > 500 nM
9 | C[C@@H]1CN(C/C=C/C(=O)N2CCN(c3nc(OCC45CCCN4CCC5)nc4c3CCN(c3cccc5cccc(Cl)c35)C4)C[C@@H]2CC#N)C[C@@H](C)O1 [Compound 197] | 10 to 100 nM
10 | N#CC[C@H]1CN(c2nc(OC[C@@]34CCCN3C[C@H](F)C4)nc3c(F)c(-c4ccc(F)c(F)c4C4CC4)ncc23)CCN1C(=O)/C=C/CN1[C@@H]2CC[C@H]1COC2 [Compound 272] | 10 to 100 nM
11 | N#CC[C@H]1CN(c2nc(OC[C@@]34CCCN3C[C@H](F)C4)nc3c(F)c(-c4cccc5ccc(F)c(F)c45)ncc23)CCN1C(=O)/C=C/CN1CCn2nccc2C1 [Compound 268] | 10 to 100 nM
12 | N#CC[C@H]1CN(c2nc(OC[C@@]34CCCN3C[C@H](F)C4)nc3c(F)c(-c4cccc5cccc(Cl)c45)ncc23)CCN1C(=O)/C=C/CN1CC[C@H](OC(F)F)C1 [Compound 303] | < 10 nM
13 | N#CC[C@H]1CN(c2nc(OCC34CCCN3CCC4)nc3c2CCN(c2cccc4cccc(Cl)c24)C3)CCN1C(=O)/C=C/CN1CC(F)(F)C1 [Compound 177] | 10 to 100 nM
14 | N#CC[C@H]1CN(c2nc(OC[C@@]34CCCN3C[C@H](F)C4)nc3c(F)c(-c4cccc(Cl)c4C4CC4)ncc23)CCN1C(=O)/C=C/CN1CC2CCC1CO2 (stereo partly drawn) [Compound 279] | < 10 nM
15 | N#CC[C@H]1CN(c2nc(OCC34CCCN3CCC4)nc3c2CCN(c2cccc4cccc(Cl)c24)C3)CCN1C(=O)/C=C/c1cnccn1 [Compound 39] | > 500 nM
16 | CC(C)c1noc(/C=C/C(=O)N2CCN(c3nc(OC[C@@]45CCCN4C[C@H](F)C5)nc4c(F)c(-c5cccc6ccc(F)c(Cl)c56)ncc34)C[C@@H]2CC#N)n1 [Compound 132] | 10 to 100 nM
17 | N#CC[C@H]1CN(c2nc(OC[C@@]34CCCN3C[C@H](F)C4)nc3c(F)c(-c4ccccc4C4CC4)ncc23)CCN1C(=O)/C=C/CN1[C@@H]2CC[C@H]1COC2 [Compound 271] | 10 to 100 nM
18 | Cn1cnc(/C=C/C(=O)N2CCN(c3nc(OC[C@@]45CCCN4C[C@H](F)C5)nc4c(F)c(-c5cccc6cccc(Cl)c56)ncc34)C[C@@H]2CC#N)c1 [Compound 42] | > 500 nM
19 | CC(C)c1noc(/C=C/C(=O)N2CCN(c3nc(OC[C@@]45CCCN4C[C@H](F)C5)nc4c(F)c(-c5cccc6cccc(Cl)c56)ncc34)C[C@@H]2CC#N)n1 [Compound 121] | 100 to 500 nM
20 | N#CC[C@H]1CN(c2nc(OC[C@@]34CCCN3C[C@H](F)C4)nc3c(F)c(-c4cccc(Cl)c4C4CCC4)ncc23)CCN1C(=O)/C=C/CN1[C@@H]2CC[C@H]1COC2 [Compound 282] | 10 to 100 nM
21 | N#CC[C@H]1CN(c2nc(OC[C@@]34CCCN3C[C@H](F)C4)nc3c(F)c(-c4cccc(Cl)c4C4CC4)ncc23)CCN1C(=O)/C=C/CN1CC[C@@H](F)C1 [Compound 284] | < 10 nM

Row | SMILES | IC50
22 | Cc1nccc(/C=C/C(=O)N2CCN(c3nc(OC[C@@]45CCCN4C[C@H](F)C5)nc4c(F)c(-c5cccc6ccccc56)ncc34)C[C@@H]2CC#N)n1 [Compound 210] | 100 to 500 nM
23 | CCc1c(F)ccc2cccc(-c3ncc4c(N5CCN(C(=O)/C=C/c6cc(C)nc(C)n6)[C@@H](CC#N)C5)nc(OC[C@@]56CCCN5C[C@H](F)C6)nc4c3F)c12 [Compound 98, 2-((S)-1-((E)-3-(2,6-dimethylpyrimidin-4-yl)acryloyl)-4-(7-(8-ethyl-7-fluoronaphthalen-1-yl)-8-fluoro-2-(((2R,7aS)-2-fluorotetrahydro-1H-pyrrolizin-7a(5H)-yl)methoxy)pyrido[4,3-d]pyrimidin-4-yl)piperazin-2-yl)acetonitrile] | < 10 nM
24 | CO[C@@H]1CCN(C/C=C/C(=O)N2CCN(c3nc(OCC45CCCN4CCC5)nc4c3CCN(c3cccc5cccc(Cl)c35)C4)C[C@@H]2CC#N)C1 [Compound 173] | < 10 nM
25 | N#CC[C@H]1CN(c2nc(OC[C@@]34CCCN3C[C@H](F)C4)nc3c(F)c(-c4cccc5ccc(F)c(Cl)c45)ncc23)CCN1C(=O)/C=C/CN1CCS(=O)(=O)CC1 [Compound 213] | 100 to 500 nM
26 | COC1CN(C/C=C/C(=O)N2CCN(c3nc(OCC45CCCN4CCC5)nc4c3CCN(c3cccc5cccc(Cl)c35)C4)C[C@@H]2CC#N)C1 [Compound 205] | < 10 nM
27 | N#CC[C@H]1CN(c2nc(OCC34CCCN3CCC4)nc3c2CCN(c2cccc4cccc(Cl)c24)C3)CCN1C(=O)/C=C/CCN1CCOCC1 [Compound 153] | 10 to 100 nM
28 | N#CC[C@H]1CN(c2nc(OCC34CCCN3CCC4)nc3c2CCN(c2cccc4cccc(Cl)c24)C3)CCN1C(=O)/C=C/CN1CC2CC2C1 (stereo partly drawn) [Compound 204] | < 10 nM
29 | N#CC[C@H]1CN(c2nc(OC[C@@]34CCCN3C[C@H](F)C4)nc3c(F)c(-c4cccc(F)c4C4CC4)ncc23)CCN1C(=O)/C=C/CN1C2CCC1COC2 [Compound 269] | < 10 nM
30 | CO[C@H]1CCN(C/C=C/C(=O)N2CCN(c3nc(OCC45CCCN4CCC5)nc4c3CCN(c3cccc5cccc(Cl)c35)C4)C[C@@H]2CC#N)C1 [Compound 200] | < 10 nM
31 | N#CC[C@H]1CN(c2nc(OCC34CCCN3CCC4)nc3c2CCN(c2cccc4cccc(Cl)c24)C3)CCN1C(=O)/C=C/CN1C[C@H]2C[C@@H]1CO2 [Compound 63] | < 10 nM
32 | N#CC[C@H]1CN(c2nc(OCC34CCCN3CCC4)nc3c2CCN(c2cccc4cccc(Cl)c24)C3)CCN1C(=O)/C=C/CN1CCCS1(=O)=O [Compound 178] | 100 to 500 nM
33 | CC1(c2noc(/C=C/C(=O)N3CCN(c4nc(OCC56CCCN5CCC6)nc5c4CCN(c4cccc6cccc(Cl)c46)C5)C[C@@H]3CC#N)n2)CC1 [Compound 45] | 10 to 100 nM
34 | N#CC[C@H]1CN(c2nc(OC[C@@]34CCCN3C[C@H](F)C4)nc3c(F)c(-c4cccc5cccc(Cl)c45)ncc23)CCN1C(=O)/C=C/CN1CCn2ccnc2C1 [Compound 262] | 10 to 100 nM
35 | Cc1c(F)ccc2cccc(-c3ncc4c(N5CCN(C(=O)/C=C/CN6[C@@H]7CC[C@H]6COC7)[C@@H](CC#N)C5)nc(OC[C@@]56CCCN5C[C@H](F)C6)nc4c3F)c12 [Compound 106, 2-((S)-1-((E)-4-((1R,5S)-3-oxa-8-azabicyclo[3.2.1]octan-8-yl)but-2-enoyl)-4-(8-fluoro-7-(7-fluoro-8-methylnaphthalen-1-yl)-2-(((2R,7aS)-2-fluorotetrahydro-1H-pyrrolizin-7a(5H)-yl)methoxy)pyrido[4,3-d]pyrimidin-4-yl)piperazin-2-yl)acetonitrile] | < 10 nM
36 | Cn1cnc(/C=C/C(=O)N2CCN(c3nc(OC[C@@]45CCCN4C[C@H](F)C5)nc4c3CCN(c3cccc5cccc(Cl)c35)C4)C[C@@H]2CC#N)n1 [Compound 43] | > 500 nM
37 | Cc1c(F)ccc2c(-c3ncc4c(N5CCN(C(=O)/C=C/CN6CCOCC6)[C@@H](CC#N)C5)nc(OC[C@@]56CCCN5C[C@H](F)C6)nc4c3F)cccc12 [Compound 252] | 100 to 500 nM
38 | Cc1nccc(/C=C/C(=O)N2CCN(c3nc(OCC45CCCN4CCC5)nc4c3CCN(c3cccc5ccc(F)c(Cl)c35)C4)C[C@@H]2CC#N)n1 [Compound 206] | 100 to 500 nM
39 | N#CC[C@H]1CN(c2nc(OCC34CCCN3CCC4)nc3c2CCN(c2cccc4cccc(Cl)c24)C3)CCN1C(=O)/C=C/CN1CC[C@@H](F)C1 [Compound 175] | < 10 nM
40 | Cc1nccc(/C=C/C(=O)N2CCN(c3nc(OC[C@@]45CCCN4C[C@H](F)C5)nc4c(F)c(-c5c(C)cc(F)c6[nH]ncc56)ncc34)C[C@@H]2CC#N)n1 [Compound 212] | 100 to 500 nM
41 | N#CC[C@H]1CN(c2nc(OCC34CCCN3CCC4)nc3c2CCN(c2cccc4cccc(Cl)c24)C3)CCN1C(=O)/C=C/CN1CC[C@H](F)C1 [Compound 174] | < 10 nM
42 | CC(C)c1noc(/C=C/C(=O)N2CCN(c3nc(OC[C@@]45CCCN4C[C@H](F)C5)nc4c(F)c(-c5nc(N)cc6cccc(F)c56)ncc34)C[C@@H]2CC#N)n1 [Compound 134] | 10 to 100 nM
